According to US11427528B2 (Zhejiang University of Technology, priority 2016, dated 2022):
Entries after “also recorded” stand apart in the source; their conditions may differ. Read-outs that look alike come from different tables or passages of the source.

Key:
[1] = Stability experiment, light exposure (XRPD); format: physicochemical; details: 4500±500 lx, 25° C., open petri dish, XRPD compared with 0th day
Protocol: (§1) The instrument used for collecting X-ray powder diffraction (XRPD) patterns is Bruker D8 Advance diffractometer. The samples are tested at room temperature under the following conditions: 2θ scan range, 3-40°; step size, 0.02°/step; speed, 0.2 s/step.
(§2) They were placed at 4500±500 lx light exposure, and 90±5% RH humidity chamber at 25° C., respectively. The XRPD results of the 5th day and 10th day were compared with that of the 0th day.

[2] = Stability experiment, high humidity (XRPD); format: physicochemical; details: 90±5% RH, 25° C., open petri dish, XRPD compared with 0th day
Protocol: as §1, §2

[3] = Grinding test in ball mill (XRPD); format: physicochemical; details: 20 Hz, 100 mg, XRPD compared with unground sample
Protocol: as §1

[4] = cited from earlier work
[5] = Storage stability at room temperature; format: physicochemical; details: 3 months

Row | Stability at room temperature [5] | Structure (SMILES) | Crystalline form after light exposure for 10 days [1] | Crystalline form after high humidity for 10 days [2] | Crystalline form after grinding for 10 min [3] | Form change at room temperature ([4]; in one day at room temperature) | Form change at room temperature ([4]; after two days at room temperature) | Form change after mechanical grinding ([4]; mechanical grinding)
1 |  | CC(C)OC(=O)C(C)(C)Oc1ccc(C(=O)c2ccc(Cl)cc2)cc1 [Form I, reference compound] | Form I | Form I | Form I |  |  | 
2 |  | CC(C)OC(=O)C(C)(C)Oc1ccc(C(=O)c2ccc(Cl)cc2)cc1 [Form III] |  |  |  | transformed to Form II and Form I |  | 
3 |  | CC(C)OC(=O)C(C)(C)Oc1ccc(C(=O)c2ccc(Cl)cc2)cc1 [Form II] |  |  |  |  | transformed to Form I | transformed to Form I
4 | remains stable | CC(C)OC(=O)C(C)(C)Oc1ccc(C(=O)c2ccc(Cl)cc2)cc1 [Form IV] | does not change its crystalline form; also recorded: Form IV | does not change its crystalline form; also recorded: Form IV | does not change its crystalline form; also recorded: Form IV |  |  | 
